Measurements published in BindingDB's records for doi:10.7270/Q2J67FB5 (Nmmlsc, 2007).

The compounds below were run against T1, fMet-Leu-Phe receptor (Homo sapiens, UniProt P21462) (assay: formyl peptide receptor binders – dose response (AID 519)).
T1 sequence (P21462 whole entry): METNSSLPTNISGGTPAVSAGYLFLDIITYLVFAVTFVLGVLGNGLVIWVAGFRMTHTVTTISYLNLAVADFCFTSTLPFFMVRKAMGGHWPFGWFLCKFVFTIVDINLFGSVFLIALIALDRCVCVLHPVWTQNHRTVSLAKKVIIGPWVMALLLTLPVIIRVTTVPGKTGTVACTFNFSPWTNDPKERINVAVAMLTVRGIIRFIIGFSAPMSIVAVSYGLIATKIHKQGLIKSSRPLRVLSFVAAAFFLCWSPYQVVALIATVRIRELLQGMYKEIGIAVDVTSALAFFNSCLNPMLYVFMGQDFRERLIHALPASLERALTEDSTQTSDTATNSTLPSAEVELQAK

SMILES | IC50 [µM]
O=C1C(=O)N(c2ncccn2)C(c2ccc(Cl)c(Cl)c2)C1C(=O)c1ccco1 (stereo not drawn) [2-(3,4-dichlorophenyl)-3-(furan-2-carbonyl)-4-hydroxy-1-pyrimidin-2-yl-2H-pyrrol-5-one] | > 66.7
Cc1ccc(C(=O)C2C(=O)C(=O)N(c3cc(C)on3)C2c2cccc(Br)c2)cc1 (stereo not drawn) [(4E)-5-(3-bromophenyl)-1-(5-methyl-1,2-oxazol-3-yl)-4-[(4-methylphenyl)-oxidanyl-methylidene]pyrrolidine-2,3-dione] | > 66.7
COc1ccc(OC)c(C2C(C(=O)c3ccccc3)C(=O)C(=O)N2Cc2ccco2)c1 (stereo not drawn) [(4Z)-5-(2,5-dimethoxyphenyl)-1-(2-furanylmethyl)-4-[hydroxy(phenyl)methylidene]pyrrolidine-2,3-dione] | 3.4
Cc1ccc(C2C(C(=O)c3ccc(Br)cc3)C(=O)C(=O)N2Cc2ccco2)o1 (stereo not drawn) [(4Z)-4-[(4-bromophenyl)-hydroxy-methylene]-1-(2-furfuryl)-5-(5-methyl-2-furyl)pyrrolidine-2,3-quinone] | > 66.7
COc1ccc(C2C(C(=O)c3cccs3)C(=O)C(=O)N2c2nnc(C)s2)cc1OC (stereo not drawn) [2-(3,4-dimethoxyphenyl)-1-(5-methyl-1,3,4-thiadiazol-2-yl)-4-oxidanyl-3-thiophen-2-ylcarbonyl-2H-pyrrol-5-one] | > 66.7
COc1ccc(C(=O)C2C(=O)C(=O)N(c3nc(C)c(C)s3)C2c2ccco2)cc1 (stereo not drawn) [(4Z)-1-(4,5-dimethyl-1,3-thiazol-2-yl)-5-(furan-2-yl)-4-[(4-methoxyphenyl)-oxidanyl-methylidene]pyrrolidine-2,3-dione] | > 66.7
CCN(CC)c1ccc(C=NC(C#N)C(=N)C#N)cc1 (stereo not drawn) [SMR000023871] | > 66.7
O=C1C(=O)N(Cc2ccccc2)C(c2cccnc2)C1C(=O)c1ccco1 (stereo not drawn) [1-Benzyl-4-(furan-2-carbonyl)-3-hydroxy-5-pyridin-3-yl-1,5-dihydro-pyrrol-2-one] | 30.5
COc1cc(C2C(C(=O)c3ccc(C)o3)C(=O)C(=O)N2CCc2ccccc2)ccc1O (stereo not drawn) [2-(3-methoxy-4-oxidanyl-phenyl)-3-(5-methylfuran-2-yl)carbonyl-4-oxidanyl-1-(2-phenylethyl)-2H-pyrrol-5-one] | 19.7
COc1ccccc1C1C(C(=O)c2ccccc2)C(=O)C(=O)N1CC(C)C (stereo not drawn) [(4Z)-4-[hydroxy(phenyl)methylene]-1-isobutyl-5-(2-methoxyphenyl)pyrrolidine-2,3-quinone] | 5.5
O=C1C(=O)N(CCc2ccccc2)C(c2cccnc2)C1C(=O)c1ccco1 (stereo not drawn) [3-(furan-2-carbonyl)-4-hydroxy-1-(2-phenylethyl)-2-pyridin-3-yl-2H-pyrrol-5-one] | > 66.7
COc1cc(C2C(C(=O)c3ccc(C)o3)C(=O)C(=O)N2Cc2cccnc2)ccc1O (stereo not drawn) [2-(3-methoxy-4-oxidanyl-phenyl)-3-(5-methylfuran-2-yl)carbonyl-4-oxidanyl-1-(pyridin-3-ylmethyl)-2H-pyrrol-5-one] | > 66.7
CCCOc1ccc(C2C(C(=O)c3ccco3)C(=O)C(=O)N2CCCn2ccnc2)cc1 (stereo not drawn) [3-(furan-2-carbonyl)-4-hydroxy-1-(3-imidazol-1-ylpropyl)-2-(4-propoxyphenyl)-2H-pyrrol-5-one] | > 66.7
Cc1ccc(C2c3c([nH]c(=S)[nH]c3=O)N=C3CC(C)(C)CC(=O)C32)cc1 (stereo not drawn) [8,8-dimethyl-5-(4-methylphenyl)-2-sulfanylidene-5,7,9,10-tetrahydro-1H-pyrimido[4,5-b]quinoline-4,6-dione] | 47.9
COc1ccccc1C1C(C(=O)c2ccccc2)C(=O)C(=O)N1CCO (stereo not drawn) [(4Z)-1-(2-hydroxyethyl)-4-[hydroxy(phenyl)methylene]-5-(2-methoxyphenyl)pyrrolidine-2,3-quinone] | 19.7
CC1=C(C(=O)OC(C)C)[C@]2(C(=O)N(CC(N)=O)c3ccccc32)C(C#N)C(=N)O1 (stereo partly drawn) [(3R)-6'-amino-1-(2-amino-2-keto-ethyl)-5'-cyano-2-keto-2'-methyl-spiro[indoline-3,4'-pyran]-3'-carboxylic acid isopropyl ester] | > 66.7
COc1cc(C2C(C(=O)c3ccc4c(c3)CC(C)O4)C(=O)C(=O)N2CCCn2ccnc2)ccc1O (stereo not drawn) [(4E)-1-(3-imidazol-1-ylpropyl)-5-(3-methoxy-4-oxidanyl-phenyl)-4-[(2-methyl-2,3-dihydro-1-benzofuran-5-yl)-oxidanyl-methylidene]pyrrolidine-2,3-dione] | 57.5

Next, values leading:

IC50 [µM] | SMILES
12.5 | Cc1ccsc1C1C2C(=O)CC(C)(C)CC2=Nc2ncnn21 (stereo not drawn) [6,6-dimethyl-9-(3-methyl-2-thienyl)-1,5,7,9-tetrahydro-[1,2,4]triazolo[5,1-b]quinazolin-8-one]
> 66.7 | CCOc1cc(C2C(C(=O)c3ccco3)C(=O)C(=O)N2CCc2ccccc2)ccc1O (stereo not drawn) [2-(3-ethoxy-4-hydroxyphenyl)-3-(furan-2-carbonyl)-4-hydroxy-1-(2-phenylethyl)-2H-pyrrol-5-one]
> 66.7 | COc1cccc(C(=O)C2C(=O)C(=O)N(Cc3cccnc3)C2c2ccco2)c1 (stereo not drawn) [(4Z)-5-(2-furanyl)-4-[hydroxy-(3-methoxyphenyl)methylidene]-1-(3-pyridinylmethyl)pyrrolidine-2,3-dione]
29.7 | COCc1cc(C2C(C(=O)c3ccco3)C(=O)C(=O)N2CCOCCO)ccc1O (stereo not drawn) [3-(furan-2-carbonyl)-4-hydroxy-1-[2-(2-hydroxyethoxy)ethyl]-2-[4-hydroxy-3-(methoxymethyl)phenyl]-2H-pyrrol-5-one]
> 66.7 | COc1ccc(C(=O)C2C(=O)C(=O)N(CCN3CCOCC3)C2c2ccc(C)cc2)cc1 (stereo not drawn) [(4Z)-4-[(4-methoxyphenyl)-oxidanyl-methylidene]-5-(4-methylphenyl)-1-(2-morpholin-4-ylethyl)pyrrolidine-2,3-dione]
42.7 | CCCOc1ccc(C2C(C(=O)c3ccc(C)o3)C(=O)C(=O)N2Cc2cccnc2)cc1 (stereo not drawn) [3-(5-methylfuran-2-yl)carbonyl-4-oxidanyl-2-(4-propoxyphenyl)-1-(pyridin-3-ylmethyl)-2H-pyrrol-5-one]
> 66.7 | Cc1cc(N2C(=O)C(=O)C(C(=O)c3ccc(F)cc3)C2c2cccc(Br)c2)no1 (stereo not drawn) [(4E)-5-(3-bromophenyl)-4-[(4-fluorophenyl)-hydroxy-methylene]-1-(5-methylisoxazol-3-yl)pyrrolidine-2,3-quinone]
> 66.7 | CCOc1cccc(C(=O)C2C(=O)C(=O)N(Cc3ccco3)C2c2ccncc2)c1 (stereo not drawn) [(4Z)-1-(2-furfuryl)-4-[hydroxy(m-phenetyl)methylene]-5-(4-pyridyl)pyrrolidine-2,3-quinone]
60.7 | O=C1C(=O)N(CCCN2CCOCC2)C(c2ccccn2)C1C(=O)c1cc2ccccc2o1 (stereo not drawn) [3-(1-benzofuran-2-carbonyl)-4-hydroxy-1-(3-morpholin-4-ylpropyl)-2-pyridin-2-yl-2H-pyrrol-5-one]
14.7 | COCCCN1C(=O)C(=O)C(C(=O)c2ccco2)C1c1ccc(Br)cc1 (stereo not drawn) [2-(4-bromophenyl)-3-(furan-2-carbonyl)-4-hydroxy-1-(3-methoxypropyl)-2H-pyrrol-5-one]
14.5 | COCCCN1C(=O)C(=O)C(C(=O)c2ccco2)C1c1ccccc1 (stereo not drawn) [3-(furan-2-carbonyl)-4-hydroxy-1-(3-methoxypropyl)-2-phenyl-2H-pyrrol-5-one]
> 66.7 | Cc1ccc(C(=O)C2C(=O)C(=O)N(CCCn3ccnc3)C2c2ccc(OC(C)C)cc2)o1 (stereo not drawn) [1-(3-imidazol-1-ylpropyl)-3-(5-methylfuran-2-yl)carbonyl-4-oxidanyl-2-(4-propan-2-yloxyphenyl)-2H-pyrrol-5-one]
27 | COc1cc(C2C(C(=O)c3cccs3)C(=O)C(=O)N2Cc2ccco2)cc(OC)c1OC (stereo not drawn) [1-(2-furanylmethyl)-4-hydroxy-3-[oxo(thiophen-2-yl)methyl]-2-(3,4,5-trimethoxyphenyl)-2H-pyrrol-5-one]
> 66.7 | O=C1Nc2ccccc2/C1=C1/SC(=S)N(CC2CCCO2)C1=O (stereo not drawn) [(5Z)-5-(2-ketoindolin-3-ylidene)-3-(tetrahydrofurfuryl)-2-thioxo-thiazolidin-4-one]
> 66.7 | Cc1nc(C)c(C(=O)C2C(=O)C(=O)N(CCCn3ccnc3)C2c2ccc(Cl)cc2)s1 (stereo not drawn) [2-(4-chlorophenyl)-3-(2,4-dimethyl-1,3-thiazole-5-carbonyl)-4-hydroxy-1-(3-imidazol-1-ylpropyl)-2H-pyrrol-5-one]
> 66.7 | COCCN1C(=O)C(=O)C(C(=O)c2cccs2)C1c1ccccc1 (stereo not drawn) [1-(2-methoxyethyl)-4-oxidanyl-2-phenyl-3-thiophen-2-ylcarbonyl-2H-pyrrol-5-one]
> 66.7 | Cc1cc(N2C(=O)C(=O)C(C(=O)c3ccco3)C2c2cccnc2)no1 (stereo not drawn) [3-(furan-2-carbonyl)-4-hydroxy-1-(5-methyl-1,2-oxazol-3-yl)-2-pyridin-3-yl-2H-pyrrol-5-one]
57.1 | CCOc1ccc(C2C(C(=O)c3cccs3)C(=O)C(=O)N2CCCn2ccnc2)cc1 (stereo not drawn) [2-(4-ethoxyphenyl)-1-(3-imidazol-1-ylpropyl)-4-oxidanyl-3-thiophen-2-ylcarbonyl-2H-pyrrol-5-one]
> 66.7 | O=C1C(=O)N(c2ncccn2)C(c2ccc(Cl)cc2)C1C(=O)c1ccco1 (stereo not drawn) [2-(4-chlorophenyl)-3-(furan-2-carbonyl)-4-hydroxy-1-pyrimidin-2-yl-2H-pyrrol-5-one]
> 66.7 | C=CCN1C(=O)C2(c3ccccc31)C(C(=O)c1ccc3c(c1)OCCO3)C(=O)C(=O)N2CCCOC (stereo not drawn) [(4'E)-1-allyl-4'-[2,3-dihydro-1,4-benzodioxin-6-yl(hydroxy)methylene]-1'-(3-methoxypropyl)spiro[indoline-3,5'-pyrrolidine]-2,2',3'-trione]
15.3 | CCOc1ccc(C2C(C(=O)c3ccco3)C(=O)C(=O)N2Cc2cccnc2)cc1 (stereo not drawn) [2-(4-ethoxyphenyl)-3-(furan-2-carbonyl)-4-hydroxy-1-(pyridin-3-ylmethyl)-2H-pyrrol-5-one]
